From patent publication US20220354825A1, “PHARMACEUTICAL COMPOSITION FOR PREVENTION OR TREATMENT OF INFLAMMATORY DISEASES COMPRISING NAPHTHOQUINONE DERIVATIVE” (LMITO THERAPEUTICS INC., priority 2019, published 2022) come the findings set out here.

Assay [1] concerns primary bone marrow-derived macrophages (BMDMs). Put plainly: NAD+/NADH measurement in macrophages after LPS/ATP. It counts as cell-based, C57BL/6 mouse. The conditions noted are these: LPS/ATP + 1, 5, 10 μM compound. How it is done:
The primary bone marrow-derived macrophages (BMDMs) isolated from C57BL/6 mouse were incubated in DMEM medium involving macrophage colony-stimulating factor (M-CSF; R&D Systems, 416-ML) during 3 to 5 days. NAD^+ production and NAD^+/NADH ratio was measured in isolated BMDMs through using NAD/NADH Assay Kit(ab65348) supplied by Abcam company. All assays were performed according to the manufacturer's product manual.
FIGS. 6 to 10 show NAD^+/NADH ratio changes in the macrophage when treated with compounds 6, 16, 17, and 27 respectively (in order from left in the figure: Untreatment, LPS/ATP, LPS/ATP+1 μM compound, LPS/ATP+5 μM compound, and LPS/ATP+10 μM).

Assay [2] shares this test system. The experiment in a line: OCR (oxygen consumption rate) measurement, Seahorse XF24. It counts as cell-based, C57BL/6 mouse. The conditions noted are these: macrophages after treatment of LPS and ATP. The method, then: The primary bone marrow-derived macrophages (BMDMs) isolated from C57BL/6 mouse were incubated in DMEM medium involving macrophage colony-stimulating factor (M-CSF; R&D Systems, 416-ML) during 3 to 5 days. OCR was measured using Seahorse XF24 Extracellular Flux Analyzer in isolated bone marrow-derived macrophages.

For assay [3] the test system is unchanged. The experiment in a line: ATP measurement in LPS-activated macrophages. The conditions noted are these: LPS + 1, 5, 10 μM compound. It counts as cell-based, C57BL/6 mouse. How it is done:
The primary bone marrow-derived macrophages (BMDMs) isolated from C57BL/6 mouse were incubated in DMEM medium involving macrophage colony-stimulating factor (M-CSF; R&D Systems, 416-ML) during 3 to 5 days. ATP content in the cell was measured through using ATP colorimetric/fluorometric kit after activation of macrophages by treatment of 100 ng/mL LPS in DMEM medium including […]. All assays were performed according to the manufacturer's product manual.
FIGS. 13 to 17 show the measurement of ATP amounts in the macrophage when treated with Compounds 6, 16, 17, 22 and 27 respectively (in order from left in the figure: Untreatment, LPS/ATP, LPS/ATP+1 μM compound, LPS/ATP+5 μM compound, and LPS/ATP+10 μM compound).

Assay [4] has the same test system. Put plainly: Mitochondrial reactive oxygen species measurement (MitoSox, FACS). In kind it is cell-based, C57BL/6 mouse. The conditions noted are these: LPS/ATP + 1, 5, 10 μM compound. The method, then:
The primary bone marrow-derived macrophages (BMDMs) isolated from C57BL/6 mouse were incubated in DMEM medium involving macrophage colony-stimulating factor (M-CSF; R&D Systems, 416-ML) during 3 to 5 days. Isolated BMDMs were stained by 1 μM MitoSox (Molecular Probes M36008) for 15 min. After washing the cells into PBS and collecting the cells, mitochondrial reactive oxygen species was measured by FACS.
FIGS. 11 and 12 show mitochondrial reactive oxygen species changes in the macrophage when treated with compounds 6 and 27, respectively (in order from left in the figure: Untreatment, LPS/ATP, LPS/ATP+1 μM compound, LPS/ATP+5 μM compound, and LPS/ATP+10 μM compound).

The target of assay [5] is NQO1 (Homo sapiens, UniProt P15559). The experiment in a line: In vitro NQO1 enzyme activity assay (cytochrome C reduction). The conditions noted are these: NQO1 2 ng. It counts as biochemical. How it is done:
In order to evaluate the enzymatic activities of compounds on NQO1, the experiments were performed as follows:
A compound to measure NQO1 enzyme activity was dissolved in DMSO to prepare a 10 mM stock solution, which was then diluted with DMSO to prepare a working solution at a concentration of 250 μM. For an enzyme reaction solution, 50 μL of 1.54 mM cytochrome C solution was added to 900 μL of 50 mM Tris-HCl (pH 7.5) solution containing 0.14% BSA, and then the prepared working solution at 250 μM was added. After adding 20 μL of 100 ng/ml NQO1 protein, […] solution was added so as to adjust the total volume to 1 mL, and then the change of absorbance was measured at 550 nm for 10 minutes. The change of absorbance was measured at 550 nm for 10 minutes using 1 mL cuvette. The reaction rate was observed through the increase in absorbance as cytochrome C was reduced at 550 nm for 10 minutes, to obtain an absorbance value, and the activity for NQO1 was measured as the reduced amount of cytochrome C (nmol reduced cytochrome C/min/μg NQO1 protein).
Absorption coefficient of Cytochrome C: 21.1 (μmol/mL)-1 cm^−1
Equipment=Cary 100 UV-Vis Spectrophotometer

Assay [6] relates to DSS-induced acute colitis mouse model. Put plainly: Efficacy in ulcerative colitis mouse model (DSS-induced acute colitis). The conditions noted are these: 5% DSS for 6 days; for MPO activity / cytokine expressions (TNF-α, IL-6, IL-1β and IL-18, ELISA) / expressions of sirtuin 1 and sirtuin 7: colon tissue homogenate; for MPO activity / cytokine expressions (TNF-α, IL-6, IL-1β and IL-18, ELISA) / expressions of sirtuin 1 and sirtuin 7 / survival rates: treated during 20 days; for histological finding of colon tissue (immunohistochemistry, histological score, H&E): treated during 7 days, vs non-treated colon tissue; for colitis clinic scores (body weight, stool consistency, bleeding combined) / degree of body weight loss: treated during 10 days; for colitis clinic scores (body weight, stool consistency, bleeding combined) / degree of body weight loss / survival rates: vs non-treated mouse. In kind it is in vivo, C57BL/6 female mouse. How it is done: DSS-induced acute colitis mouse model was prepared using 6-week-old C57BL/6 female mouse in the following method from Opal S M et al., Jama., 309(11):1154-1162(2013) and Hotchkiss R S et al., Journal of immunology., 176(9):5471-5477(2006).
The clinical score in colitis were measured daily for body weight, rectal bleeding, total bleeding loss, and fecal concentration during colitis induction.
For immunohistochemistry of tissue section, mouse spleen, lung and colon were fixed using 10% formalin and embedded in paraffin. Paraffin sections were cut to a thickness of 4 μm, and H&E(hematoxylin and eosin) staining was performed. The histopathological score was measured in accordance with the criteria described in Osuchowski M F, et al., Journal of Immunology, 177(3):1967-74(2006); and Liu W, et al., Cell Research, 25(6): 691-706(2015).
The sandwich ELISAs and MPO assay were performed according to conventional methods in this field. TNF-α, IL-6, IL-1β, IL-18 ELISA(sandwich ELISAs) were performed using BD OptEIA ELISA Kit and MPO assay was performed using MPO Activity assay kit(ab105136) of Abcam company.
The data obtained from independent experiment (means±SD) was analyzed by using two-tailed Student's t-test. The differences were considered significant in p<0.05. For survival comparison, the results were graphically described and analyzed according to kaplan-Meier survival analysis, that is, the product-limit method, using log-rank(Mantel-Cox) tests (Prism, version 5.0, GraphPad Software).
In general terms: An ELISA detects its analyte on a solid surface through an enzyme-linked reagent.

Assay [7] concerns primary bone marrow-derived macrophages (BMDMs). Put plainly: NAD+ measurement in macrophages after LPS/ATP. In kind it is cell-based, C57BL/6 mouse. The conditions noted are these: LPS/ATP + 1, 5, 10 μM compound. The method, then:
The primary bone marrow-derived macrophages (BMDMs) isolated from C57BL/6 mouse were incubated in DMEM medium involving macrophage colony-stimulating factor (M-CSF; R&D Systems, 416-ML) during 3 to 5 days. NAD^+ production and NAD^+/NADH ratio were measured in isolated BMDMs through using NAD/NADH Assay Kit(ab65348) supplied by Abcam company. All assays were performed according to the manufacturer's product manual.
FIGS. 1 to 5 show NAD^+ changes in the macrophage when treated with compounds 6, 16, 17, 22 and 27 respectively (in order from left in the figure: Untreatment, LPS/ATP, LPS/ATP+1 μM compound, LPS/ATP+5 μM compound, and LPS/ATP+10 μM compound).

NQO1, sequence (P15559 whole entry, species assumed): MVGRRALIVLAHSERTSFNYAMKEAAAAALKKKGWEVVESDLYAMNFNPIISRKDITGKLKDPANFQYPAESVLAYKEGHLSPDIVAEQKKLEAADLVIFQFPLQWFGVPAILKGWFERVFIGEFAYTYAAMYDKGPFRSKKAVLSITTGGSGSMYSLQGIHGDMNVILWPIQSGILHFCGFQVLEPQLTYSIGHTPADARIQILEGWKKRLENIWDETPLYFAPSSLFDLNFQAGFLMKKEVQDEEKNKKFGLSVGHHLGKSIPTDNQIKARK

Consider `COc1nn(-c2ccccc2)c2c1C(=O)C(=O)c1ccccc1-2` [Compound 6], for which the “NAD+/NADH ratio” value in assay [1] is reported as “increased in dose-dependent manner”. In assay [2], the “overall mitochondrial OCR” value is reported as “increased”. Besides, in assay [3], the ATP amounts result is on record as “increased in dose-dependent manner”. In addition, in assay [4], the “mitochondrial reactive oxygen species amounts” value is given as “decreased in dose-dependent manner”. In addition, the “NQO1 Activity” value in assay [5] (Compound 0.2 μM) is given as 3782 nmol of reduced Cytochrome C/min/μg NQO1 Protein. Further, in assay [5] (Compound 5 μM), the “NQO1 Activity” value is given as 7706 nmol of reduced Cytochrome C/min/μg NQO1 Protein. Besides, in assay [6], the MPO activity result is reported as “decreased”; the “cytokine expressions (TNF-α, IL-6, IL-1β and IL-18, ELISA)” value was “decreased”; the “expressions of sirtuin 1 and sirtuin 7” value was “significantly increased”; the “histological finding of colon tissue (immunohistochemistry, histological score, H&E)” value was “significantly improved than non-treated colon tissue”. For the same compound, in assay [6], the “colitis clinic scores (body weight, stool consistency, bleeding combined)” value is “significantly ameliorated compared with non-treated mouse”; the “degree of body weight loss” value is given as “significantly slower than non-treated mouse”; the survival rates result is “higher than non-treated mouse”. For the same compound, the “NAD+ production” value in assay [7] is given as “increased in dose-dependent manner”.
For the compound `CC(C)c1nc2c([nH]1)C(=O)C(=O)c1ccccc1-2` [Compound 27], the “NAD+/NADH ratio” value in assay [1] is recorded as “increased in dose-dependent manner”. In assay [2], the “overall mitochondrial OCR” value is listed as “increased”. For the same compound, the ATP amounts entry in assay [3] is reported as “increased in dose-dependent manner”. Further, the “mitochondrial reactive oxygen species amounts” value in assay [4] is listed as “decreased in dose-dependent manner”. Further, the “NQO1 Activity” value in assay [5] (Compound 0.2 μM) is recorded as 2269 nmol of reduced Cytochrome C/min/μg NQO1 Protein. Moreover, in assay [6], the MPO activity entry was “decreased”; the “cytokine expressions (TNF-α, IL-6, IL-1β and IL-18, ELISA)” value is “decreased”; the “expressions of sirtuin 1 and sirtuin 7” value is “significantly increased”; the “histological finding of colon tissue (immunohistochemistry, histological score, H&E)” value is “significantly improved than non-treated colon tissue”. Moreover, in assay [6], the “colitis clinic scores (body weight, stool consistency, bleeding combined)” value was “significantly ameliorated compared with non-treated mouse”; the “degree of body weight loss” value is listed as “significantly slower than non-treated mouse”; the survival rates entry was “higher than non-treated mouse”. In assay [7], the “NAD+ production” value is recorded as “increased in dose-dependent manner”.
